Measured values published in patent publication US11077151B2, “Ascaroside treatment of autoimmune and inflammatory diseases” (California Institute of Technology, priority 2016, dated 2021).

What was measured:
[1] = test system: NOD/ShiLtJ mouse model of Type 1 Diabetes; assay: NOD/ShiLtJ mouse model of Type 1 Diabetes; assay type: in vivo; details: 100 ng ascr #7 i.p. three times a week
Experimental: The NOD/ShiLtJ (Jackson Laboratories) mouse model of Type 1 Diabetes was used These mice typically develop hyperglycemia around 17-18 weeks of life. Either saline or 100 ng ascr #7 was administered three times a week via intraperitoneal injection. Blood glucose levels were determined in the same mouse over time, via the collected of tail vein blood (as shown in FIG. 4A) at multiple time points. […] 8 mice were injected with saline and 8 mice were injected with ascr #7, as described above.

[2] = test system: IL-1β secretion, bone marrow-derived mouse dendritic cells; assay: IL-1β secretion by TNF-α stimulated bone marrow dendritic cells (ELISA); assay type: cell-based; details: different concentrations of ascr #7
Experimental: (§1) Bone marrow was extracted from femurs of C57BL/6 mice (6-12 weeks of age). These mice were euthanized by CO2 inhalation and their femurs were removed. After removing the remaining flesh from the bone, they were cut at the metaphysis. Bone marrow was flushed out using a syringe filled with RPMI. The extracted marrow was further broken down by resuspension with syringe. The mixture was centrifuged and the pellet was re-suspended in RPMI. […] 20 ng of GM-CSF was added to each well. At day 3, and every 3 days thereafter, the media was replaced. Cells were used for experiments between day 7-9.
(§2) Bone marrow dendritic cells were collected between day 7-9 of culture. Cells were washed twice and counted. Ascr #7 in water or RPMI were placed in corresponding wells, and are allowed to dry. 10^6 cells were then plated in each well in a 24 well culture plate. Cells were left to incubate with ascr #7 for 5 minutes. Following the brief incubation, different TNFα was added to the wells. These bone marrow dendritic cells were then cultured at 37° C. for 18-72 hours. Cells were collected via the pellet generated by centrifuge. The supernatant was also preserved. EBioscience ELISA kits was used to determine the concentration of different cytokines present in each well.

[3] = test system: T cell transfer model of colitis, Rag -/- mice; assay: T cell transfer model of colitis (IBD); assay type: in vivo, mouse; details: 300 ng ascr #7 i.p. every 3 days, day 14 to 28
Experimental: A T cell transfer model of colitis where 10^6CD4+ T cells were transferred to adult Rag −/− mice was used, and either saline or 300 ng ascr #7 were administered via intraperitoneal injection every 3 days between day 14 and day 28. On day 28, the mice were euthanized and colon analysis was performed. n=3 mice per group. […] The normal mouse colon is long, skinny, and has discrete fecal pellets. The diseased mouse colon, with IBD, has a shortened, dilated colon, with diarrhea instead of discrete fecal pellets.

[4] = test system: IL-6 secretion, bone marrow-derived mouse dendritic cells; assay: IL-6 secretion by TNF-α stimulated bone marrow dendritic cells (ELISA); assay type: cell-based; details: different concentrations of ascr #7
Experimental: as §1, §2

[5] = test system: ovalbumin model of murine asthma (C57BL/6 mice); assay: Ovalbumin model of murine asthma; assay type: in vivo, mouse
Experimental: Adult C57BL/6 mice were sensitized by administering 2 ug OVA (Sigma-Aldrich) and 1 mg alum (Thermo) with 50 ng ascr #7 or saline, via intraperitoneal injection, on Day 0 and 14. On day 24, the mice were challenged with intranasal administration of saline containing 100 μg OVA, under isoflurane anesthesia. Histologic sections were stained with H&E or PAS to score for eosinophilia, goblet cell metaplasia, and airway hyper-reactivity. Mice were also placed in a computer controlled small animal ventilator (SCIREQ) to score for airway hyper-reactivity following methacholine challenge. […] Animals with asthma have higher resistance of flow, which would be represented as higher “RL” values in FIG. 3B. […] Lungs were collected, postmortem, and then sectioned and stained to show the presence of eosinophils and mucus. […] In FIG. 3C, the asthmatic mouse lung, here labeled “Control” has a large number of mucus and eosinophils that surround the bronchioles and occupy the alveolar space; wherein the thick barriers would prohibit oxygen from easily diffusing.

IL-6 receptor = molecular target: T1, IL-6 receptor (Homo sapiens, UniProt P08887); details: cited from earlier work
T1 construct: host or cells: human patients (endogenous receptor)
T1 sequence (P08887 20-468): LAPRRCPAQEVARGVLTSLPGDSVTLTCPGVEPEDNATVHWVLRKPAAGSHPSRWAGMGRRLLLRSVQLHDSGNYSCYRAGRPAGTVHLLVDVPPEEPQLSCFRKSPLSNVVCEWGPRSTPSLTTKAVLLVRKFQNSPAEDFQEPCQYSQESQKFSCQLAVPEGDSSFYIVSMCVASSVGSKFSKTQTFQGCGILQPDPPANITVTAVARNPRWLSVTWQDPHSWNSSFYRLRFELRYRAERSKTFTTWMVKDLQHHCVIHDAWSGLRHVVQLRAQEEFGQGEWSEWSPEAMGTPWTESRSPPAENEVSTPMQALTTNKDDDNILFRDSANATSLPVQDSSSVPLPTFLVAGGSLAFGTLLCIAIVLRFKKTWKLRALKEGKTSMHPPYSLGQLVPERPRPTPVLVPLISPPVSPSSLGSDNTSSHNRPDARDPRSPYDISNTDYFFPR

[6] = ovalbumin model, 50 ng ascr #7 i.p.

Compound: C[C@H](CC/C=C/C(=O)O)O[C@@H]1O[C@@H](C)[C@H](O)C[C@H]1O [ascr #7]
- blood glucose levels, individual mice ([1]; throughout 18 weeks, FIG. 4B): significantly reduced blood glucose levels
- blood glucose levels, group average vs untreated group ([1]; week 18, FIG. 4C): significantly lower blood glucose levels
- conversion to hyperglycemia ([1]; NOD mice): delays conversion to hyperglycemia
- IL-1β level ([2]; dendritic cells not stimulated with TNF-α, FIG. 2 left): very low levels of IL-1β
- secreted IL-1β level ([2]; dendritic cells stimulated with TNF-α, FIG. 2 right): reduces these levels significantly
- development of abnormal lumen dilation [3]: markedly reduces
- development of colon shortening [3]: markedly reduces
- development of diarrhea [3]: markedly reduces
- colon appearance on day 28 ([3]; FIG. 5): normal appearing colon, which is long, skinny, and contains discrete fecal pellets
- IL-6 level ([4]; dendritic cells not stimulated with TNF-α, FIG. 1 left): very low levels of IL-6
- secreted IL-6 level ([4]; dendritic cells stimulated with TNF-α, FIG. 1 right): reduces these levels significantly
- lung histology (boundaries between bronchioles and alveolar space; eosinophils and mucus) ([5]; 50 ng ascr #7 i.p. Day 0 and 14, stained lung sections, FIG. 3C): thin boundaries between the bronchioles and the alveolar space, comparable to the normal mice
- resistance of air flow (RL) ([5]; 50 ng ascr #7 i.p. Day 0 and 14 with OVA/alum, methacholine challenge, FIG. 3B): low resistance of air flow, with comparable levels to normal mice
- development of airway hyper-reactivity [5, 6]: reduces
- development of eosinophilia [5, 6]: reduces
- development of goblet cell metaplasia [5, 6]: reduces

Compound: Tocilizumab: a humanized anti-IL-6 receptor antibody
- clinical activity of atopic dermatitis (IL-6 receptor; 3 patients with severe atopic dermatitis, Navarini et al. 2011): decreased clinical activity
- relapse rates, neuropathic pain and general fatigue, neuromyelitis optica (IL-6 receptor; after one year of treatment, Araki et al. 2014): decreased
- manifestations of eosinophilic fasciitis (IL-6 receptor; at 6 months, Espinoza et al. 2015): remission of both articular and cutaneous manifestations
- disease remission, severe multisystemic microscopic polyangiitis (IL-6 receptor; one patient, Berti et al. 2015): complete and sustained disease remission
- treatment of uveitis (IL-6 receptor; patients, Mesquida et al. 2014): effective
- inflammatory response and quality of life measures, Cogan's syndrome (IL-6 receptor; person, relapsed after prednisone, Shibuya et al. 2013): successfully improved
